From patent publication US20050037956A1, “Screening method for agents useful in treating diabetes” (priority 2001, published 2005)

Assays:
[1] = system: pRB-E2F interaction (E2F-pRB complex); test: Electromobility shift assay (EMSA) with E2pro oligonucleotide and nuclear extracts from day 8 NIH3T3-L1 cells, peptide added to binding reaction; settings: in vitro, increasing peptide concentration added to binding reaction, day 8 NIH3T3-L1 nuclear extracts
Protocol: Changes in E2F DNA-binding patterns during adipogenesis were investigated. Nuclear extracts were prepared from NIH3T3-L1 cells at different times during induction of differentiation and their E2F DNA-binding activity was assessed by DNA gel shift assays using a radio active E2pro oligonucleotide corresponding to two tandem E2F binding sites in the adenovirus E2 promoter. Oligonucleotide probes were radiolabeled using E. coli polynucleotide kinase and {γ-32P}ATP. The oligonucleotides used for electromobility shift assays (EMSA) were as follows (only upper strands are given): E2pro (corresponding to the −72 to −32 region of the adenovirus E2 promoter; E2F binding site), 5′-[…]-3′ (SEQ ID NO:1); CycD1 (E2F binding site from the cyclin D1 promoter), 5′-[…]-3′ (SEQ ID NO:2); CycD1m, 5′-[…]-3′ (SEQ ID NO:3, mutated nucleotides in bold italic). […] The gel was dried and analyzed using a PhosphorImager. […]
The specific peptide was modified to improve cell penetration by linking to the amino terminal end of the interfering peptide a specific region of the HIV tat protein of 18 amino acids in length, which renders conjugated peptides cell-penetrable (Schwarze, S. R., et al., 1999, Science 285(5433): 1569-72). The effect of this elongated interfering peptide on E2F was first assessed in vitro as above. […]

[2] = system: PAI-1 expression; test: PAI-1 induction by insulin in adipocytes in presence of PI3K or MEK1 inhibitors; type: cell-based; settings: adipocytes treated by insulin in presence of inhibitor
Protocol: (§1) Adipocyte differentiation was monitored by staining lipids with oil-red O. Briefly, cells were washed twice with phosphate buffered saline (PBS) and fixed with 3.7% formaldehyde solution for 1 h. After washing twice with PBS, cells were stained with oil-red O [60:40 (v/v) dilution in water of 0.5% stock solution (v/v, in isopropanol)] for 1 h. Cells were then washed twice with PBS and twice with water. Lipid-positive cells started to appear after the third day of induction and reached more than 90% by the eighth day. PPARγ (peroxisome proliferator-activated receptor gamma) mRNA, another marker of adipocyte differentiation, also started to appear at the third day and reached a plateau by the 5th day. For RNA analysis, total RNA (12 μg), prepared with acid guanidinium thiocyanate-phenol-chloroform method, was resolved by agarose gel electrophoresis under denaturing conditions and transferred to a nylon membrane as described (Northern blotting) (Ziegler, A., et al., 1991, J Biol Chem 266(31): 21067-74). Equal RNA loading and transfer to nylon membranes were confirmed by staining rRNA with methylene blue (Herrin, D. L. and G. W. Schmidt, 1988, Biotechniques 6(3): 196-7, 199-200). […] Levels of specific RNA were measured using a Molecular Dynamic PhosphorImager. […]

[3] = system: PAI-1 mRNA; test: PAI-1 mRNA induction by insulin at different stages of NIH3T3-L1 differentiation (Northern blot); type: cell-based
Protocol: NIH3T3-L1 preadipocytes (ATCC No. CL-173) were induced to differentiate into adipocytes by treating confluent cells with a mixture of insulin, dexamethasone and isobutylmethylxanthine followed by a successive change of different media (Student, A. K. et al., 1980, J Biol Chem. 255:4745-4750). In brief, NIH3T3-L1 preadipocytic cells (2×10^5 cells) were grown in 60-mm plastic dishes with 4 ml Dulbecco's modified Eagle's medium (DMEM) supplemented with 10% fetal bovine serum (FBS). Two days after cells reached confluency, the medium was changed to DMEM containing 10% FBS, 10 μg/ml insulin, 1 μM dexamethason, and 0.5 mM isobutylmethylxanthine. Two days later, this medium was replaced with DMEM supplemented only with 10 μg/ml insulin. Subsequently, two days later this medium was withdrawn and replaced with DMEM containing 10% FBS, and thereafter cells were replenished with the same medium every two days.
as §1, with “21067-74).” for “21067-74). Equal RNA loading and transfer to nylon membranes were confirmed by staining rRNA with methylene blue (Herrin, D. L. and G. W. Schmidt, 1988, Biotechniques 6(3): 196-7, 199-200).”

specific interfering peptide: peptide whose sequence was derived from amino acids 402-419 of E2F1 corresponding to the pRB-binding region of E2F1 (LSPPHEALDYHFGLEEGE; UniProt Q01094 402-419, looked up, fragment)
shift of DNA-protein complexes (E2F DNA-binding, EMSA) [1]: shift from DNA-protein complexes of higher molecular weight forms to complexes of lower molecular weight forms

COc1cccc(-c2cc(=O)c3ccccc3o2)c1N [PD98059]
PAI-1 induction by insulin [2]: suppressed

insulin
PAI-1 mRNA induction by insulin ([3]; NIH3T3-L1 cells before cells were confluent): induced to a very low extent | PAI-1 mRNA induction by insulin ([3]; NIH3T3-L1 cells when confluent): not at all | PAI-1 mRNA induction by insulin ([3]; terminally differentiated cells (day 4 and 8)): induced markedly
